These results are taken from PMC3546527 (MedChemComm, 2012).

Molecules are shown by their SMILES.

For the test, the target named is HK853 (Thermotoga maritima, UniProt Q9WZV7). Put plainly: STD-NMR. It is filed as binding.

`Nc1ncnc2c1ncn2[C@@H]1O[C@H](COP(=O)(O)OP(=O)(O)O)[C@@H](O)[C@H]1O` [ADP]: the “f STD ^a” value stood at 73.3.
